Reference: patent publication US9233995B2, “Quinazoline derivatives and quinazoline complex protein kinase inhibitor for inhibiting multiplication of tumor cells and preparation method thereof” (INSTITUTE OF CHEMISTRY, CHINESE ACADEMY OF SCIENCES, priority 2010, dated 2016)
Like-named read-outs stand apart in the source and are kept apart here.

Key:
[1] = target: T1, EGFR (Epidermal Growth Factor Receptor) (Homo sapiens, UniProt P00533); test: Enzyme-linked immunosorbent assay (ELISA), kinase inhibitory activity (phosphorylation of PTP1B(Tyr66) biotinylated peptide substrate); type: biochemical; details: average of two independent parallel experiments
T1 construct: purchased CST
Source text: Protein kinase assay kit: PTP1B(Tyr66) Biotinylated Peptide from CST company is used as a substrate of kinase EGFR (Epidermal Growth Factor Receptor).

[2] = Solubility (physicochemical properties, Table 1); details: room temperature, atmospheric pressure
[3] = test system: human breast cancer cell line (sensitive) MCF-7/S + EGF; test: Cytotoxicity experiment under the condition of additional EGF, SRB method; type: cell-based; details: MCF-7/S with additional EGF 100 ng/ml, 48 h, SRB, read-out: IC50 (umol/L) Breast cancer cell (sensitive) MCF-7/S + EGF
Method: Human breast cancer cell line (sensitive) MCF-7/S and human non-small cell lung cancer cell line A549 are cultured in HAM′S/F-12 medium (HyClone, USA) containing 10 wt % fetal bovine serum (FBS, Hyclone, USA), and 100 ng/ml epidermal growth factor (EGF, Sigma, USA) is added to this medium. Cells described above were purchased from Cell Resource Center, Shanghai Institute for Biological Science, CAS, they are placed in a CO2 incubator and used for the experiment 3-5 days later.
(§1) Wherein, for experiment on compound cytotoxicity assay by sulforhodamine B (SRB) method: Cells in the logarithmic growth phase are collected and inoculated at 96-well plates (6500 cells/well/100 ul, RPMI1640 containing 100 ng/ml of EGF). After incubation for 24 h, compounds at gradient concentrations (200, 100, 50, 25, 12.5, 6.25, 1 (μM/L)) are added. The same volume of RPMI1640 containing 100 ng/ml of EGF is used as control group of the experiment; the blank group is only culture medium without cell. Three parallel wells are set up for each concentration group. After incubation is continued for 48 h, the cell survival rate is measured by SRB method. 50 μl 10% trichloroacetic acid (TCA) pre-cooled (4° C.) is added to each well, it is fixed for 1 hour at 4° C., washed with water for five times, and completely dried, and then 100 μl of SRB solution (Sigma, USA) at concentration of 0.4% by weight is added, and staining is performed at 37° C. in the dark for 30 min. Wash with acetic acid at a concentration of 1% by weight for 4-5 times, dry in the air, add 200 μl of Tris solution (10 mM, pH 10.5), after sufficiently dissolved, the absorbance (absorption wavelength is 570 nm) is measured in microplate reader.
(§2) The growth inhibition rate (IR) is calculated according to the following formula: IR (%)=[1−(experiment group A value−blank group A value)/(control group A value−blank group A value)]×100%, and the IC50 value is calculated using Origin 6.0 software.

[4] = Stability (physicochemical properties, Table 1); details: for Stability (photostability): light
[5] = test system: human breast cancer cell line (sensitive) MCF-7/S; test: Cytotoxicity experiment, SRB method, tumor cell proliferation; type: cell-based; details: 48 h, read-out: IC50 (umol/L) Breast cancer cell (sensitive) MCF-7/S
Method: (§3) Human breast cancer cell line (drug-resistant) MCF-7/A, human breast cancer cell line (sensitive) MCF-7/S, prostate cancer cell PC-3, keratinocyte Colo-16, human non-small cell lung cancer cell line A549 and etc. are cultured in RPMI1640 medium (Invitrogen, USA) containing 10 wt % fetal bovine serum (FBS, Hyclone, USA), and epidermal growth factor (EGF) at a concentration of 100 ng/ml is added to stimulate growth. After 2-3 days, cells in logarithmic growth phase are collected, and inoculated at 96 well plates (6500 cells/well/100 ul, RPMI1640 containing 100 ng/mL EGF) for 24 h, and then compound at gradient concentrations (200, 100, 50, 25, 12.5, 6.25, 1 μM/L) are added. The same volume of RPMI1640 containing 1 wt % of dimethyl sulfoxide (DMSO) is used as control group of the experiment; the blank group is only culture medium without cell. Three parallel wells are set up for each concentration group. After incubation is continued for 48 h, the cell survival rate is measured by SRB method. Results are shown in Table 2 and Table 3, respectively.
as §1, §2

[6] = test system: Human breast cancer cell line (drug-resistant) MCF-7/A; test: as above; type: cell-based; details: 48 h, read-out: IC50 (umol/L) Breast cancer cell (drug-resistant) MCF-7/A
Method: as §3, §1, §2

[7] = test system: human non-small cell lung cancer cell line A549; test: as above; type: cell-based; details: A549, 48 h, read-out: IC50 (μmol/L) Non-small cell lung cancer cell A549
Method: as §3, §1, §2

keratinocyte Colo-16 = test: as above; type: cell-based; details: Colo-16, 48 h, SRB, read-out: IC50 (μmol/L) Keratinocyte Colo-16
Method: as §3, §1, §2

[8] = test system: prostate cancer cell PC-3; test: as above; type: cell-based; details: PC-3, 48 h, SRB; read-out: IC50 (μmol/L) Prostate cancer cell PC-3
Method: as §3, §1, §2

T1 sequence (P00533 25-1210): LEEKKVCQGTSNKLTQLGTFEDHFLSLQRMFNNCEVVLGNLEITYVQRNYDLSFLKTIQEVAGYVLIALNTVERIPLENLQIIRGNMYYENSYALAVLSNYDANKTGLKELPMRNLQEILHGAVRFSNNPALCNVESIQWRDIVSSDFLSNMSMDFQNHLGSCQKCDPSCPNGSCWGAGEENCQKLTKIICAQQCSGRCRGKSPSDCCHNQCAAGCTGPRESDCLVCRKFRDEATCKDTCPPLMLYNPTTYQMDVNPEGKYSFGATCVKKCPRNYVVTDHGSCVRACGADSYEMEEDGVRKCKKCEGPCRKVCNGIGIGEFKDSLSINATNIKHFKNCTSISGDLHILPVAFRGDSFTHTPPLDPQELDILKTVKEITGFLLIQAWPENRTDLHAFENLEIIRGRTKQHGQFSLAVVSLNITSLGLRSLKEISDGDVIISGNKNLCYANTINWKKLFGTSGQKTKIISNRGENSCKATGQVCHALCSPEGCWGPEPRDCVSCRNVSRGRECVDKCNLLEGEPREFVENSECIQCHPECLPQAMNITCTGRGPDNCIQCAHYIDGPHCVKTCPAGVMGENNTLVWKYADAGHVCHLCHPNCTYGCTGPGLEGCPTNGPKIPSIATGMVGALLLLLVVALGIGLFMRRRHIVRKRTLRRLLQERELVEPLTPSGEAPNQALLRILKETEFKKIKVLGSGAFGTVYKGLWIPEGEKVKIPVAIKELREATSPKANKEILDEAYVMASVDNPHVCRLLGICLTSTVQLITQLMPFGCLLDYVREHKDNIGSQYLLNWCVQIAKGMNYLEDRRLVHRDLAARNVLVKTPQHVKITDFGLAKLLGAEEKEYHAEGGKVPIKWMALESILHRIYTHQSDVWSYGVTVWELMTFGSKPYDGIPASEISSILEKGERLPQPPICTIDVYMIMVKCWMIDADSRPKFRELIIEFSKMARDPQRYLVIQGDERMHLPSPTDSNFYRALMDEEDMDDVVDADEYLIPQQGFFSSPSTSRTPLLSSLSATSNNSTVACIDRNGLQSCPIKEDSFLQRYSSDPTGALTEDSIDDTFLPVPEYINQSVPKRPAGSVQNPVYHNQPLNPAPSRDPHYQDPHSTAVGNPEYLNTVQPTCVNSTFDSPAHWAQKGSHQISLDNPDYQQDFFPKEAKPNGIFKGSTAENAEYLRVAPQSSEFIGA

| Compound | IC50 [1] [µM] | Solubility in DMSO [2] | Solubility in methanol and ethanol [2] | Solubility in water [2] | IC50 ([3]; Homo sapiens, MCF7S) [µmol/L] | Stability (in air) [4] | Stability (photostability) [4] | IC50 ([5]; Homo sapiens, MCF7S) [µmol/L] | IC50 ([6]; Homo sapiens, MCF7a) [µmol/L] | IC50 ([7]; Homo sapiens) [µmol/L] | IC50 (keratinocyte Colo-16; Keratinocyte) [µmol/L] | IC50 [8] [µmol/L] | IC50 [3] [µmol/L] | IC50 [5] [µmol/L] | IC50 [6] [µmol/L] | IC50 [7] [µmol/L] | IC50 (keratinocyte Colo-16) [µmol/L] |
| --- | --- | --- | --- | --- | --- | --- | --- | --- | --- | --- | --- | --- | --- | --- | --- | --- | --- |
| COc1cc2ncnc(Nc3ccc(F)c(Cl)c3)c2cc1OCCNCCN [ZW1001, 6-(2-(2-aminoethylamino)ethoxy)-4-(3-Chloro-4-fluoro-phenylamino)-7-methoxy quinazoline] | 0.0046 | Highly soluble in DMSO | soluble in water, soluble in methanol | slightly | 36.3 ± 5.77 | Stable in air, | photostable | 38.34 ± 0.1 | > 100 | 51 ± 1.02 | > 100 | 38.4 ± 2.36 | – | – | – | – | – |
| COc1cc2ncnc(Nc3ccc(F)c(Cl)c3)c2cc1OCC[N]1CC[NH][Ru+]1([Cl])[c]1cccc(-c2ccccc2)c1.F[P-](F)(F)(F)(F)F (centres unmarked) [ZW2003] | 0.126 | Highly soluble in DMSO | soluble in water, soluble in methanol | slightly | – | Stable in air, | photostable | – | – | – | – | 81.3 ± 6.94 | 28.7 ± 8.75 | 79.1 ± 11.6 | > 100 | > 100 | 54.2 ± 4.98 |
| COc1cc2ncnc(Nc3ccc(F)c(Cl)c3)c2cc1OCC[NH+]1CC[NH2+][Pt-2]1([Cl])[Cl] (centres unmarked) [ZY-1] | 0.0028 | Highly soluble in DMSO | soluble in water, soluble in methanol | slightly | – | Stable in air, | photostable | – | – | – | – | – | – | – | – | – | – |
| COc1cc2ncnc(Nc3ccc(F)c(Cl)c3)c2cc1OCCC[N]1CC[NH][Ru+]1([Cl])[c]1ccccc1.F[P-](F)(F)(F)(F)F (centres unmarked) [ZW2005] | 0.174 | – | – | – | – | Stable in air, | photostable | – | – | – | – | 38.3 ± 3.56 | 17.4 ± 1.09 | > 100 | > 100 | 45.1 ± 2.34 | 39.8 ± 4.85 |
| COc1cc2ncnc(Nc3ccc(F)c(Cl)c3)c2cc1OCCBr [ZW1001-M, 4-(3′-chloro-4′-fluoro-phenylamino)-6-(2-bromo-ethoxy)-7-methoxy quinazoline] | 0.018 | Highly soluble in DMSO | soluble in water, soluble in methanol | slightly | – | Stable in air, | photostable | – | – | – | – | – | – | – | – | – | – |
| CC(=O)O[C@H]1C(=O)[C@@]2(C)[C@H]([C@H](OC(=O)c3ccccc3)[C@]3(O)C[C@H](OC(=O)[C@H](O)[C@@H](NC(=O)c4ccccc4)c4ccccc4)C(C)=C1C3(C)C)[C@]1(OC(C)=O)CO[C@@H]1C[C@@H]2O [Taxol, reference compound] | – | – | – | – | 0.029 | – | – | – | 0.44 ± 0.5 | 4.07 ± 1.63 | 1.06 ± 0.31 | 0.74 ± 0.18 | – | – | – | – | – |
| Cc1ccc(C(C)C)cc1.F[P-](F)(F)(F)(F)F.[Cl][Ru-]1[NH2+]CC[NH2+]1 [Pcy-Ru, reference compound] | – | – | – | – | – | – | – | – | – | – | – | > 100 | 21.8 ± 1.73 | 13 ± 3.37 | > 100 | 17.3 ± 0.76 | 14.3 ± 1.5 |
